One block for each molecule: values may come before it. Ends that are not written are not given here.
How the values were obtained:
[1] = target: His-REV7(R124A)/REV3L(1847–1898) complex (Homo sapiens, UniProt Q9UI95, R124A); assay: Thermal shift assay; assay type: binding; conditions: compound 500 μM, protein 5 μM, 4 h at room temperature
[2] = target: His-REV7(R124A)/biotin-AviTag-REV3L(1846–1898) complex (Homo sapiens, UniProt Q9UI95, R124A); assay: Pull-down assay on streptavidin-conjugated agarose beads; assay type: binding; conditions: compound 50 μM, complex 1 μM, 4°C 20 h
HeLa cells [3] = assay: Cell toxicity assay; assay type: cell-based; conditions: 75 μM, 3 days
ICLR in COS7 cells = assay: ICL repair assay; assay type: cell-based; conditions: 75 μM
HeLa cells [4] = assay: Cisplatin sensitization by the clonogenic survival assay; assay type: cell-based; conditions: cisplatin 24 h then compound 75 μM 24 h, 6 more days
[5] = target: T1, hexahistidine (His)-REV7(R124A) (UniProt Q9UI95 1-211, R124A); assay: AlphaScreen or HTRF
[6] = target: T1, hexahistidine (His)-REV7(R124A); assay: AlphaScreen or HTRF; remark: listed apart in the source

T1 sequence (Q9UI95 whole entry R124A): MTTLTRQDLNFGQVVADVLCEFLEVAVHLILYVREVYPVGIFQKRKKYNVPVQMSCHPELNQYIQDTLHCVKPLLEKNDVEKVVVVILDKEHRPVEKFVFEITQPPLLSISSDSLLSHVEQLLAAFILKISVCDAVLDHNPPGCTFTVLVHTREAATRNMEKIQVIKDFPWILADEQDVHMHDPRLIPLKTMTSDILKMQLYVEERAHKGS
His-REV7(R124A)/REV3L(1847–1898) complex, sequence (Q9UI95 whole entry R124A, one chain of several): as the sequence (Q9UI95 whole entry R124A) above
His-REV7(R124A)/biotin-AviTag-REV3L(1846–1898) complex, sequence (Q9UI95 whole entry R124A, one chain of several): as the sequence (Q9UI95 whole entry R124A) above

Molecule: CC(=O)N1CCC(Cn2cnc3scc(-c4ccc(C)o4)c3c2=O)CC1 [compound 7]
Viability / growth of HeLa cells (alamarBlue), normalized by DMSO (HeLa cells [3]): decreased HeLa cell growth but did not completely eliminate the cells
ICLR activity (luciferase activity of ICL plasmid normalized to non-ICL plasmid) (ICLR in COS7 cells): suppressed luciferase activity
Normalized number of colonies (clonogenic survival) versus cisplatin only (HeLa cells [4]): lesser

Molecule: ANILKPLMSPPSREEIMATLL-biotin [C-terminal biotin-tagged REV3L(1875–1895) peptide]
binding result [6]: binds

Second part, led by results:

Shift in the denaturation point of the His-REV7(R124A)/REV3L(1847–1898) complex [1]: clear shift in the denaturation point
Molecule: CC(=O)N1CCC(Cn2cnc3scc(-c4ccco4)c3c2=O)CC1 [compound 1]
Isolation of His-REV7(R124A) on streptavidin beads (complex dissociation) [2]: significantly inhibited

IC50 [5]: 80 nM
Molecule: ANILKPLMSPPSREEIMATLL [non-tagged REV3L(1875–1895) peptide]
